For 16 molecules, IC50 results are on record in ChEMBL document CHEMBL4706488, “Design, synthesis and biological evaluation of 2-amino-4-(1,2,4-triazol)pyridine derivatives as potent EGFR inhibitors to overcome TKI-resistance” (Eur J Med Chem, 2020).

pIC50: −log10 of the molar value.

The test system of one assay is A-431. Nature of the assay: cells. Conditions: Homo sapiens. It is filed as functional, cell-based.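 Also: antiproliferative test in A-431 cells carrying wild-type EGFR, with cell growth inhibition read by MTT assay.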
Another assay relates to NCI-H1975. Nature of the assay: cells. It is filed as functional, cell-based. Particulars: Homo sapiens.
The next assay has as its system U-87 MG. Nature of the assay: cells. It is filed as functional, cell-based, U-87MG ATCC. Particulars: Homo sapiens.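 Also: antiproliferative effect on U-87 MG cells carrying wild-type EGFR, growth inhibition read out by MTT assay.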
The nature of another assay: cells. Conditions: Homo sapiens, U87MG Human EGFR vIII. Type of assay: functional, tissue-based.
For assay [1], the target named is Epidermal growth factor receptor (Homo sapiens, UniProt P00533). Nature of the assay: biochemical. It is filed as cell-based, Sf21.
Description: Inhibition of wild type N-terminal GST-tagged human EGFR cytoplasmic domain (669 to 1210 residues) expressed in baculovirus infected Sf21 cells using biotin-labeled TK substrate preincubated for 30 mins followed by substrate and ATP addition at Km concentration and further incubated for 20 mins by HTRF assay
For assay [2], the target named is Epidermal growth factor receptor (Homo sapiens, UniProt P00533, L858R/T790M). Nature of the assay: biochemical. Type of assay: cell-based, Sf21.
Sequence of Epidermal growth factor receptor (Homo sapiens, UniProt P00533, L858R/T790M) (P00533 25-1210 T790M/L858R limits assumed): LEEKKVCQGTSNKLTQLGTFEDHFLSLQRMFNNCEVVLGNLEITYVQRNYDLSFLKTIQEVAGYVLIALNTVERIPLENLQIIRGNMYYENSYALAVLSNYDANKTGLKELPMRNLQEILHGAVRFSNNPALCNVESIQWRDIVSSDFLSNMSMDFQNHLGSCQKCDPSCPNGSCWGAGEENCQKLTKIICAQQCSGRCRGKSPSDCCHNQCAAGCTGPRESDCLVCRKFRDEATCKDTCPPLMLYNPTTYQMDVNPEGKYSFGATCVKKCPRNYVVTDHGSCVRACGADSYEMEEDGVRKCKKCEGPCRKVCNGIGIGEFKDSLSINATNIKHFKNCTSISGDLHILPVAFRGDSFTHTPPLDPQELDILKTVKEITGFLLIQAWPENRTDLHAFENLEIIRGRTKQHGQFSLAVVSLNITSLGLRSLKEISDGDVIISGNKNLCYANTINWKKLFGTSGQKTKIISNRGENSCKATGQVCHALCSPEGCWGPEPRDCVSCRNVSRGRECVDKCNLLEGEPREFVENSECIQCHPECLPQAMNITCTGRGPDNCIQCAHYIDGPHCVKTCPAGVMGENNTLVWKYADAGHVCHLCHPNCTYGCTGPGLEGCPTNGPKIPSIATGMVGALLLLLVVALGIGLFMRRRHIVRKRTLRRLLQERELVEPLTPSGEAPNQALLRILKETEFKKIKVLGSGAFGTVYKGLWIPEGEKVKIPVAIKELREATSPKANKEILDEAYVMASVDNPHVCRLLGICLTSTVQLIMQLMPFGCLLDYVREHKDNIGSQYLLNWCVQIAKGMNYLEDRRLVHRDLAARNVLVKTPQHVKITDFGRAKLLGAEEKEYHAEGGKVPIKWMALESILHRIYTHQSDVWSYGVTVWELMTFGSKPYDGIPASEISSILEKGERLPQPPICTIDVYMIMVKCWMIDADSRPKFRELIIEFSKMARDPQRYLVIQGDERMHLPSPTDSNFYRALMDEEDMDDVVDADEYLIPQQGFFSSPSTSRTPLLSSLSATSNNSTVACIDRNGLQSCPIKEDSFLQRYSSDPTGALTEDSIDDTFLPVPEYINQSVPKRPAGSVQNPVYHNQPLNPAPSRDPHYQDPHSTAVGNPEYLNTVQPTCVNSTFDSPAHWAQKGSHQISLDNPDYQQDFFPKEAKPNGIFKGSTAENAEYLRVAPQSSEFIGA

Sequence of Epidermal growth factor receptor (Homo sapiens, UniProt P00533) (P00533 whole entry): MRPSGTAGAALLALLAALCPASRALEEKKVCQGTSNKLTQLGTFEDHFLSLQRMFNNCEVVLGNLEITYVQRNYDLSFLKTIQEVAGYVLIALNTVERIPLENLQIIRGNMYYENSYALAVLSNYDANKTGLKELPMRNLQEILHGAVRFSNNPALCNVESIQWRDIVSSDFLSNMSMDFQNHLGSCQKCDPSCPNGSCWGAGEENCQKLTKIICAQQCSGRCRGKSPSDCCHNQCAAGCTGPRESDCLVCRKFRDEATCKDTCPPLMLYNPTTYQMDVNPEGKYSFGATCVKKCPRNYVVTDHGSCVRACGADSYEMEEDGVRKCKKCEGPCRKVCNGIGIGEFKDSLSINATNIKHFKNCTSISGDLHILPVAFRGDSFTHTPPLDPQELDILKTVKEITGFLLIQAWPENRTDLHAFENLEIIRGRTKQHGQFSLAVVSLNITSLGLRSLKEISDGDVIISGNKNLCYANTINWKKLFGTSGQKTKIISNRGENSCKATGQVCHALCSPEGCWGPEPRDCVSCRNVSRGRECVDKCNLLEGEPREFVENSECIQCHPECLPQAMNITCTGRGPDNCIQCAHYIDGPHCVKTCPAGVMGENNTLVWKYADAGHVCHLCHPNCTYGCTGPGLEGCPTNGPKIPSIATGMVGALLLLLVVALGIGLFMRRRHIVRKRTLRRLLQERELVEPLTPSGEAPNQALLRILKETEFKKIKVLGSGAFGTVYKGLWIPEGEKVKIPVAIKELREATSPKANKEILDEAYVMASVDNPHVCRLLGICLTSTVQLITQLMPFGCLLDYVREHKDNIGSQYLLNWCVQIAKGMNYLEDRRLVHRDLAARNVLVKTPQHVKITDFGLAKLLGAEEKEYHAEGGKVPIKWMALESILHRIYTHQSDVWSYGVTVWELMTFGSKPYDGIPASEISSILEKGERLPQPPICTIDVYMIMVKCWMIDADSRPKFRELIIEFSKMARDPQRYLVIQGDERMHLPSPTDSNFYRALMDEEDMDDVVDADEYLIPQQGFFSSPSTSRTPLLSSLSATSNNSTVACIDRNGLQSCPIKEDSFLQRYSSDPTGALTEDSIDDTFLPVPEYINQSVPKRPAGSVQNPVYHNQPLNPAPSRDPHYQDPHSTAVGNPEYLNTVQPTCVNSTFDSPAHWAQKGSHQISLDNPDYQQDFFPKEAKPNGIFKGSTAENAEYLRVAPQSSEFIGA
Description for A-431: Antiproliferative activity against human A-431 cells harboring wild type EGFR assessed as inhibition of cell growth by MTT assay
Description for U-87 MG: Antiproliferative activity against human U-87MG cells harboring wild type EGFR assessed as inhibition of cell growth by MTT assay

Take `C=CC(=O)Nc1cc(Nc2nccc(-c3cn(C)c4ccccc34)n2)c(OC)cc1N(C)CCN(C)C` [OSIMERTINIB]: the pIC50 was […] in the assay on A-431, […] with NCI-H1975, 5.35 in the assay on U-87 MG and 4.88 in the assay “cells”.

Take `C=CC(=O)Nc1cccc(Nc2cc(-n3c(CCCO)nnc3-c3ccc(F)cc3)ccn2)c1`: the pIC50 is 6.71 in assay [1]; 6.84 in assay [2]; 4.18 with A-431; below 4.00 in the assay on NCI-H1975; 4.66 in the assay with U-87 MG; below 4.00 in “cells”.

With `C=CC(=O)Nc1cc(Nc2cc(-n3c(SC)nnc3-c3ccc(F)cc3)ccn2)c(OC)cc1N1CCC(N2CCN(C)CC2)CC1`, the pIC50 was 5.03 in the assay on A-431, 5.35 in the assay with NCI-H1975, 5.44 in the assay on U-87 MG and 4.59 in “cells”.

For `C=CC(=O)Nc1ccc(OC)c(Nc2cc(-n3c(SC)nnc3-c3ccc(F)cc3)ccn2)c1`, the pIC50 was 6.75 in assay [1]; 6.83 in assay [2]; 5.47 in the assay with A-431; 5.11 in the assay with NCI-H1975; 5.35 with U-87 MG; 4.58 in “cells”.

Regarding `C=CC(=O)Nc1cccc(Nc2cc(-n3c(C)nnc3-c3ccc(F)cc3)ccn2)c1`, the pIC50 was 4.91 with A-431, 4.67 with NCI-H1975, 4.29 with U-87 MG and 4.42 in the assay “cells”.

Regarding `C=CC(=O)Nc1cc(Nc2cc(-n3c(SC)nnc3-c3ccc(F)cc3)ccn2)c(OC)cc1N1CCC(N2CCOCC2)CC1`, the pIC50 in assay [2] was 6.95; with A-431, 5.15; in the assay on NCI-H1975, 4.78; in the assay with U-87 MG it was 4.82; in the assay “cells”, 4.69.

On to `C=CC(=O)Nc1cc(Nc2nccc(-n3cc(CN(C)C)c(-c4ccccc4)n3)n2)c(OC)cc1N1CCOCC1` [LAZERTINIB], for which the pIC50 was 7.46 in assay [1]; 8.57 in assay [2]; 5.44 in the assay with A-431; above 6.00 in the assay on NCI-H1975; 4.48 in the assay on U-87 MG; below 4.00 in “cells”.

On to `C=CC(=O)Nc1cc(Nc2cc(-n3c(SC)nnc3-c3ccc(F)cc3)ccn2)c(OC)cc1N1CCN(C2CCN(C)CC2)CC1`, for which the pIC50 with A-431 was 5.00; in the assay on NCI-H1975, 4.83; with U-87 MG, 5.19; in “cells”, 4.59.

Regarding `C=CC(=O)Nc1cc(Nc2cc(-n3c(SC)nnc3-c3ccc(F)cc3)ccn2)c(OC)cc1N1CCCN(C)CC1`, the pIC50 in assay [1] is 6.48; in assay [2], 6.81; with A-431, 4.99; with NCI-H1975 it was 5.09; in the assay with U-87 MG, 5.16; in the assay “cells” it was 4.36.

Regarding `C=CC(=O)Nc1cc(Nc2cc(-n3c(SC)nnc3-c3ccc(F)cc3)ccn2)c(OC)cc1N1CCN(C)CC1`, the pIC50 was 4.84 in the assay on A-431, below 4.00 in the assay with NCI-H1975, 5.06 in the assay on U-87 MG and below 4.00 in the assay “cells”.

In the case of `C=CC(=O)Nc1ccc(OC)c(Nc2cc(-n3c(C)nnc3-c3ccc(F)cc3)ccn2)c1`, the pIC50 in the assay on A-431 is 4.28; in the assay on NCI-H1975, 4.27; with U-87 MG, 4.17; in “cells”, 4.45.

Turning to `C=CC(=O)Nc1ccc(OC)c(Nc2cc(-n3c(CCCO)nnc3-c3ccc(F)cc3)ccn2)c1`, the pIC50 in the assay on A-431 was 4.05; in the assay with NCI-H1975, below 4.00; in the assay on U-87 MG, below 4.00; in “cells” it was below 4.00.

As for `C=CC(=O)Nc1cc(Nc2cc(-n3c(SC)nnc3-c3ccc(F)cc3)ccn2)c(OC)cc1N1CCC(N(C)C)CC1`, the negative logarithm of the IC50 (pIC50) in the assay with A-431 is 4.94; with NCI-H1975, 4.88; with U-87 MG, 5.07; in “cells” it was 4.40.

Take `CCC(=O)Nc1cc(Nc2cc(-n3c(SC)nnc3-c3ccc(F)cc3)ccn2)c(OC)cc1N(C)CCN(C)C`: the pIC50 in the assay on A-431 is 4.13; with NCI-H1975, below 4.00; in the assay on U-87 MG, 4.27; in the assay “cells” it was below 4.00.

With `C=CC(=O)Nc1cccc(Nc2cc(-n3c(SC)nnc3-c3ccc(F)cc3)ccn2)c1`, the pIC50 was 6.63 in assay [2]; 5.16 in the assay with A-431; 4.97 in the assay with NCI-H1975; 5.46 in the assay with U-87 MG; 4.89 in the assay “cells”.

Regarding `COc1cc(N(C)CCN(C)C)ccc1Nc1cc(-n2c(SC)nnc2-c2ccc(F)cc2)ccn1`, the pIC50 in the assay on A-431 was below 4.00; in the assay with NCI-H1975, 4.38; in the assay on U-87 MG, 4.72; in “cells”, below 4.00.

Usually pIC50 stands for the IC50 on a negative log10 scale, so that one unit is a factor of ten. Higher therefore signals a low IC50.
